The NIST ThermoML archive (doi:10.1016/j.fluid.2008.08.012)
± gives the expanded uncertainty stated by the source.

What was measured:
[1] = refractive index (Na D-line) (dimensionless); details: 298.15 K; 101.33 kPa; Liquid; Standard Abbe refractometry
[2] = for mass density: 298.15 K, 101.33 kPa; for mass density / vapor or sublimation pressure: Liquid; for vapor or sublimation pressure: Ebulliometric method (Recirculating still); for surface tension liquid-gas: 303.15 K, Maximal bubble pressure
[3] = xn = mol fraction of the nth substance listed; details: 303.15 K, Maximal bubble pressure

COC(C)(C)C [2-methoxy-2-methylpropane]
Details	mass density [kg/m3]	refractive index	surface tension liquid-gas [mN/m]
[1]	–	1.36766 ± 0.00031	–
[2]	735.45 ± 0.27	–	18.7 ± 0.25

[2]
Details	vapor or sublimation pressure [kPa]
301.31 K	38.06 ± 0.09
303.21 K	41.03 ± 0.09
305.59 K	45.05 ± 0.09
308.33 K	50.06 ± 0.1
310.85 K	55.05 ± 0.1
313.2 K	60.06 ± 0.11
315.39 K	65.03 ± 0.11
317.47 K	70.07 ± 0.12
319.41 K	75.05 ± 0.12
321.27 K	80.08 ± 0.13
323.02 K	85.05 ± 0.13
324.7 K	90.06 ± 0.14
325.98 K	94 ± 0.14
326.31 K	95.05 ± 0.14
328.24 K	101.34 ± 0.14

COC(C)(C)C [2-methoxy-2-methylpropane] + C1CCCCC1
[3]
Details	surface tension liquid-gas [mN/m]
x1 = 0.046	23.39 ± 0.24
x1 = 0.1	22.97 ± 0.24
x1 = 0.205	22.23 ± 0.23
x1 = 0.308	21.57 ± 0.23
x1 = 0.409	21.03 ± 0.23
x1 = 0.51	20.58 ± 0.22
x1 = 0.614	20.12 ± 0.22
x1 = 0.716	19.71 ± 0.22
x1 = 0.816	19.34 ± 0.22
x1 = 0.901	19.05 ± 0.21
x1 = 0.947	18.89 ± 0.21

COC(C)(C)C [2-methoxy-2-methylpropane] + CC(C)=O
[3]
Details	surface tension liquid-gas [mN/m]
x1 = 0.031	22.14 ± 0.23
x1 = 0.074	21.76 ± 0.23
x1 = 0.171	21.13 ± 0.23
x1 = 0.272	20.59 ± 0.22
x1 = 0.378	20.09 ± 0.22
x1 = 0.484	19.75 ± 0.22
x1 = 0.585	19.47 ± 0.22
x1 = 0.681	19.22 ± 0.22
x1 = 0.784	18.98 ± 0.21
x1 = 0.884	18.74 ± 0.21
x1 = 0.94	18.55 ± 0.21

CC(C)=O [acetone]
Details	mass density [kg/m3]	refractive index	surface tension liquid-gas [mN/m]
[1]	–	1.35732 ± 0.00031	–
[2]	784.23 ± 0.24	–	22.45 ± 0.26

Details	vapor or sublimation pressure [kPa]
[2], 327.16 K	94 ± 0.2

C1CCCCC1 [cyclohexane]
Details	mass density [kg/m3]	refractive index	surface tension liquid-gas [mN/m]
[1]	–	1.42508 ± 0.00031	–
[2]	773.84 ± 0.24	–	24.1 ± 0.26

Details	vapor or sublimation pressure [kPa]
[2], 351.37 K	94 ± 0.2
